Data taken from ChEMBL document CHEMBL1687887, “Evolution of potent and stable placental-growth-factor-1-targeting CovX-bodies from phage display peptide discovery” (J Med Chem, 2011).
Active and inactive are the calls of the source. The calls are words filed in the database; no cut-off is given here. Numbered stars: 1 amine (or outer) side, 2 acyl side, 3 side chain; on linkers, the order of the positions; unused ones are H or OH. Bridge positions count the residues as written; N and C are the ends. Square brackets hold non-standard residues; d marks the D form. Peptide text beside a SMILES is read from it. * marks the point of attachment. X2 = NCCCC[C@H](N[*:1])C(=O)NC(=O)COCC(=O)[*:2]; X1 = O=C(COCC(=O)*)Nc1ccc(CCC(=O)N2CCC2=O)cc1; X3 = O=C(CCc1ccc(N*)cc1)N1CCC1=O; NMeE = CN[C@@H](CCC(=O)O)C(=O)O; Aib = CC(C)(N)C(=O)O

Legend:
[1] = Terminal half life in Swiss Webster mouse at 10 mg/kg, iv; assay type: ADME, organism-based; parameters: dose 10 mg/kg, route intravenous; conditions: in vivo, read-out: beta t1/2 (converted)
Placenta growth factor [2] = target: T1, Placenta growth factor (Homo sapiens, UniProt P49763); experiment: Inhibition of human PlGF-1-VEGFR-1 interaction by ELISA
T1 sequence (P49763 whole entry): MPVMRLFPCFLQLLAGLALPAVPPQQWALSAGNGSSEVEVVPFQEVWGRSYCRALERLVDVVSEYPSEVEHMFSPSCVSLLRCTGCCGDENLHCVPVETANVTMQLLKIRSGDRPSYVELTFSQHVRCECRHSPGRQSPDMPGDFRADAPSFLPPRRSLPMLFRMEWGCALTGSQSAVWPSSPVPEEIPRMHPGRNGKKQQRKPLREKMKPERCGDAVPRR

Placenta growth factor [3] = target: T1, Placenta growth factor; experiment: Binding affinity to human PlGF-1; conditions: read-out: Kd
Placenta growth factor [4] = target: T2, Placenta growth factor (Mus musculus, UniProt P49764); experiment: Binding affinity to mouse PlGF
T2 sequence (P49764 whole entry): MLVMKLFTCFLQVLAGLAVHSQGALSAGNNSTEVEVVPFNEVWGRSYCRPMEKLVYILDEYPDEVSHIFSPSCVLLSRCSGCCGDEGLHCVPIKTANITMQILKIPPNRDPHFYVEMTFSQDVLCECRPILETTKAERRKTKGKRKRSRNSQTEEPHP

[5] = Terminal half life in cynomolgus monkey at 10 mg/kg, iv; assay type: ADME, organism-based, Macaca fascicularis; parameters: dose 10 mg/kg, route intravenous; conditions: in vivo, read-out: beta t1/2 (converted)
Placenta growth factor [6] = target: T1, Placenta growth factor; experiment: Binding affinity to human PlGF-2
[7] = Stability of the compound in presence of cathepsin B; assay type: ADME
[8] = target: T3, Placenta growth factor (Mus musculus) (UniProt P49764); experiment: Inhibition of mouse PlGF interaction with human VEGFR-1 by ELISA
T3 sequence (whole entry): T2 sequence (P49764 whole entry)

[9] = target: T3, Placenta growth factor (Mus musculus); experiment: (§1) Inhibition of mouse PlGF-VEGFR-1 interaction by ELISA
Placenta growth factor [10] = target: T1, Placenta growth factor; experiment: Inhibition of human PlGF-2-VEGFR-1 interaction by ELISA
[11] = Stability in Swiss Webster mouse serum assessed as functional compound remaining after 6 hrs; assay type: ADME, cell-free; conditions: read-out: Stability
[12] = target: T4, Placenta growth factor (Homo sapiens) (UniProt P49763); experiment: Binding affinity to human PlGF-1 by surface plasmon resonance study
T4 sequence (whole entry): T1 sequence (P49763 whole entry)

Placenta growth factor [13] = target: T2, Placenta growth factor; experiment: as §1
[14] = target: T4, Placenta growth factor (Homo sapiens); experiment: Binding affinity to human PlGF-2 by surface plasmon resonance study

Structure (SMILES) | half-life [1] [h] | IC50 (Placenta growth factor [2]) [nM] | Kd (Placenta growth factor [3]) [nM] | Kd (Placenta growth factor [4]) [nM] | Kd (Placenta growth factor [6]) [nM] | remaining at 6 h [11] [%] | IC50 (Placenta growth factor [13]) [nM] | other results
CC[C@H](C)[C@@H]1NC(=O)[C@H](Cc2ccc(O)cc2)NC(=O)[C@H](Cc2cnc[nH]2)NC(=O)[C@@H](NC(=O)[C@@H](NC(=O)[C@H](CCC(=O)O)N(C)C(=O)[C@H](Cc2ccccc2)NC(=O)[C@H](C)NC(=O)[C@H](C)NC(=O)[C@H](CC(=O)O)NC(=O)[C@H](C)NC(C)=O)C(C)C)CSSC[C@@H](C(=O)N[C@H](C(=O)N[C@@H](CCCNC(=N)N)C(=O)N[C@@H](Cc2ccc(O)cc2)C(N)=O)[C@@H](C)O)NC(=O)[C@H](Cc2cnc[nH]2)NC(=O)[C@@H]2CCCN2C(=O)[C@H](CC(C)C)NC(=O)[C@H](CCCCNC(=O)COCC(=O)Nc2ccc(CCC(=O)N3CCC3=O)cc2)NC1=O (Ac-ADAAF[NMeE]VCHYIK(X1)LPHCTRY-NH2; disulfide 8-16) | 24 | 3 | 8 | – | – | – | – | –
CC[C@H](C)[C@@H]1NC(=O)[C@H](Cc2ccc(O)cc2)NC(=O)[C@H](Cc2cnc[nH]2)NC(=O)[C@@H](NC(=O)[C@@H](NC(=O)[C@H](CCC(=O)O)N(C)C(=O)[C@H](Cc2ccccc2)NC(=O)[C@H](C)NC(=O)[C@H](C)NC(=O)[C@H](CC(=O)O)NC(=O)[C@H](C)NC(C)=O)C(C)C)CSSC[C@@H](C(=O)N[C@H](C(=O)N[C@@H](CCCCNC(C)=O)C(=O)NC(C)(C)C(N)=O)[C@@H](C)O)NC(=O)[C@H](Cc2cnc[nH]2)NC(=O)C(C)(C)NC(=O)[C@H](CC(C)C)NC(=O)[C@H](CCCCNC(=O)COCC(=O)Nc2ccc(CCC(=O)N3CCC3=O)cc2)NC1=O (Ac-ADAAF[NMeE]VCHYIK(X1)L[Aib]HCTK(Ac)[Aib]-NH2; disulfide 8-16) | 75 | 0.4 | 0.1 | 70 | 9 | – | – | half-life [5]: 78 h; Stability [7]: Stable
CC[C@H](C)[C@@H]1NC(=O)[C@H](Cc2ccc(O)cc2)NC(=O)[C@H](Cc2cnc[nH]2)NC(=O)[C@@H](NC(=O)[C@@H](NC(=O)[C@H](CCC(=O)O)NC(=O)[C@H](Cc2ccccc2)NC(=O)[C@H](C)NC(=O)[C@H](C)NC(=O)[C@H](CC(=O)O)NC(C)=O)C(C)C)CSSC[C@@H](C(=O)N[C@H](C(=O)N[C@@H](CCCN=C(N)N)C(=O)N[C@@H](Cc2ccc(O)cc2)C(N)=O)[C@@H](C)O)NC(=O)[C@H](Cc2cnc[nH]2)NC(=O)[C@@H]2CCCN2C(=O)[C@H](CC(C)C)NC(=O)[C@H](CCCCNC(=O)COCC(=O)Nc2ccc(CCC(=O)N3CCC3=O)cc2)NC1=O (Ac-DAAFEVCHYIK(X1)LPHCTRY-NH2; disulfide 7-15) | 14 | 1 | 0.3 | – | – | – | – | –
CSCC[C@H](NC(=O)[C@@H](NC(=O)[C@H](CCCCN)NC(=O)[C@@H]1CSSC[C@H](NC(=O)[C@@H](NC(=O)[C@H](CC(=O)O)NC(=O)[C@H](Cc2ccccc2)NC(C)=O)C(C)C)C(=O)N[C@@H](CCCCN)C(=O)N[C@@H](Cc2c[nH]c3ccccc23)C(=O)N[C@@H](C(C)C)C(=O)N[C@@H]([C@@H](C)O)C(=O)N[C@@H](CC(C)C)C(=O)N2CCC[C@H]2C(=O)N[C@@H](Cc2cnc[nH]2)C(=O)N1)C(C)C)C(=O)N[C@@H](CCCCN)C(=O)NC(=O)COCC(=O)Nc1ccc(CCC(=O)N2CCC2=O)cc1 (Ac-FDVCKWVTLPHCKVM[X2]-X3; disulfide 4-12) | – | 2 | 4 | 400 | 100 | – | – | inhibition [8]: inactive; inhibition [9]: inactive; IC50 (Placenta growth factor [10]): 150 nM
CSCC[C@H](NC(=O)[C@H](CCCCNC(=O)COCC(=O)Nc1ccc(CCC(=O)N2CCC2=O)cc1)NC(=O)[C@H](CCCCNC(C)=O)NC(=O)[C@@H]1CSSC[C@H](NC(=O)[C@@H](NC(=O)[C@H](CC(=O)O)NC(=O)[C@H](Cc2ccccc2)NC(C)=O)C(C)C)C(=O)N[C@@H](CC(N)=O)C(=O)N[C@@H](Cc2c[nH]c3ccccc23)C(=O)N[C@@H](C(C)C)C(=O)N[C@@H]([C@@H](C)O)C(=O)N[C@@H](CC(C)C)C(=O)N2CCC[C@H]2C(=O)N[C@@H](Cc2cnc[nH]2)C(=O)N1)C(N)=O (Ac-FDVCNWVTLPHCK(Ac)K(X1)M-NH2; disulfide 4-12) | – | 4 | 5 | – | – | < 5 | 4 | Activity [12]: Active; Activity [14]: Active
CSCC[C@H](NC(=O)[C@@H](NC(=O)[C@H](CCCCNC(=O)COCC(=O)Nc1ccc(CCC(=O)N2CCC2=O)cc1)NC(=O)[C@@H]1CSSC[C@H](NC(=O)[C@@H](NC(=O)[C@H](CC(=O)O)NC(=O)[C@H](Cc2ccccc2)NC(C)=O)C(C)C)C(=O)N[C@@H](CC(N)=O)C(=O)N[C@@H](Cc2c[nH]c3ccccc23)C(=O)N[C@@H](C(C)C)C(=O)N[C@@H]([C@@H](C)O)C(=O)N[C@@H](CC(C)C)C(=O)N2CCC[C@H]2C(=O)N[C@@H](Cc2cnc[nH]2)C(=O)N1)C(C)C)C(N)=O (Ac-FDVCNWVTLPHCK(X1)VM-NH2; disulfide 4-12) | – | – | 4 | – | – | 11 | 54 | –
